The values that follow come from patent US20110086898A1, “PYRAZOLOOXAZOLE COMPOUND” (Eisai R&D Management Co., Ltd., priority 2009, published 2011).

Test [1] concerns stress-related reduction in food intake. The settings on record: Brain Research, 823: 221-225 (1999); cited from earlier work.
The next test deals with T1, human CRFR1 (Homo sapiens, UniProt P34998).
T1 construct: The full-length CRFR1 gene was obtained by PCR by using human brain cDNA library; expressed in transfected cells
T1 sequence (P34998 24-415): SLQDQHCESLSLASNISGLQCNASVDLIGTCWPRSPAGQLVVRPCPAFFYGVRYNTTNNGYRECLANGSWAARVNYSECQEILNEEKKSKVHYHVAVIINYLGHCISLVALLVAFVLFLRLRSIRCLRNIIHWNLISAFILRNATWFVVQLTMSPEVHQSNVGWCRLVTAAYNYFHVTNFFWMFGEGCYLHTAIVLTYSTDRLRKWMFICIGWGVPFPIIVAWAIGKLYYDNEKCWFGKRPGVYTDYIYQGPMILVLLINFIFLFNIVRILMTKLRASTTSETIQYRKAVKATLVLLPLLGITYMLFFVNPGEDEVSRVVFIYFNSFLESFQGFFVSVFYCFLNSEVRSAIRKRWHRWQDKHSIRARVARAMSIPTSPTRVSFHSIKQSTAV
In words: CRFR1 binding test (SPA competition with 125I-CRF). The settings on record: membrane fraction of human CRFR1-expressing HEK293 cells, read-out: CRF1 receptor binding capacity IC50. The protocol:
(1) Preparation of CRFR1-Expressing Cells
The membrane fraction of human CRFR1 high-expressing cells was used as the material for a CRFR1 binding experiment. The CRFR1-expressing cells were prepared in the following manner. The full-length CRFR1 gene was obtained by PCR by using human brain cDNA library (QuickClone™, Clontech). The obtained DNA fragment was inserted into a cloning vector and the base sequence was confirmed cDNA having the proper base sequence was linked to an expression vector (pcDNA3.1™, Invitrogen). The CRFR1 expression vector was genetically introduced into HEK293 cell, and the resistant cells which proliferated in culture medium containing G418 (1 mg/ml) were cloned by the limiting dilution method. Out of the cloned cells, cells having high binding capacity between the membrane fraction per unit protein and sauvagine were selected according to the following binding experiment, and the selected cells were used for the experiments.
(2) Preparation of Membrane Fraction
The cloned cells obtained in (1) were collected and suspended in ice-cooled membrane buffer (50 mM Tris-HCl, 5 mM MgCl2, 2 mM EGTA, 1 mM DTT, protease inhibitor cocktail (COMPLETE™, Roche Diagnostics) pH 7.3), and then the cells were disrupted with a Polytron (KINEMATICA) while cooling on ice (level 5, 10 seconds, 2-5 times, ice-cooling) and then centrifuged (2,000 rpm, 5 minutes, 4° C.), followed by collecting the supernatant. Membrane buffer was added to the precipitate, and the mixture was subjected to Polytron treatment (same conditions as mentioned above) and centrifuged (conditions as mentioned above), and the obtained supernatant was collected and combined with the previous supernatant. This was centrifuged (13,000 rpm (18,000×g), 30 minutes, 4° C.) to prepare cell membranes. The precipitated cell membranes were suspended in membrane buffer and disrupted with a Polytron (level 5, 10 seconds, 3-5 times, ice-cooling) to prepare a dispersed suspension. The protein assay was carried out.
The following method (1) or (2) was earned out for use as the cell membrane action.
(1) The above dispersed suspension was diluted with membrane buffer containing 0.1% BSA to a protein concentration of 200 μg/ml, for use as the cell membrane fraction.
(2) The above dispersed suspension was freeze-preserved, and if necessary, thawed, re-dispersed and diluted for use as the cell membrane fraction.
A binding competition experiment with CRF was conducted by the SPA (GE Healthcare) method using a 96-well plate. Five jug of the cell membrane fraction protein, 1 mg of SPA beads and […] ^125I-CRF (Perkin Elmer) were allowed to stand at mom temperature for at least two hours in the presence of a test compound, and the radioactivity of each well after centrifugation (1,200 rpm (260×g), five minutes, room temperature) was measured with a TopCount (registered trademark; Perkin Elmer).
(4) Calculation of Binding Capacity
The radioactivity with addition of a 4,000-fold excess of non-radioactive sauvagine as the nonspecific binding was subtracted from each value, and the resulting value was expressed as a percentage (% of control), with 100% as the radioactivity without addition of the test compound (control).

Another test has as its system male Balb/c mice. As to the kind of experiment: Light/dark box test in mice (anxiolytic effect). In kind it is in vivo. The settings on record: for anxiolytic effect in the light/dark box test in mice: dose 30 mg/kg, oral administration; for Effective Dose: minimum dose significantly prolonging time spent in light box vs vehicle, oral, one hour prior to test, Balb/c mice. The protocol:
Evaluation of Anxiolytic Effect in Light/Dark Box Test in Mice
The light/dark box test in mice was carried out according to a modified method of Belzung C., Misslin R., and Vogel E. et al. (Reference; Behavioural effects of the benzodiazepine receptor partial agonist RO16-6028 in mice, Psychopharmacology, 97, 388-391, 1989). The test apparatus used in this test was a light/dark box including a covered black acrylic box (dark box; 15×10×20 cm), a white acrylic box with top opened (light box; 15×20×20 cm) and a black acrylic tunnel (10×7×4.5 cm) that connects the dark box and the light box and enables a mouse to freely move back and forth between the dark box and light box. In this test apparatus, however, a transparent acrylic plate was used for the front side (20×20 cm) and back side (20×20 cm) of the light box to allow observation of the behavior. After setting illumination so that the light intensity of the floor surface of the light box became 150 Lux, 5-week-old male Balb/c mice (purchased from Nihon Charles River) were introduced into the dark box and the test was started. In the test; the tested compound was suspended in 5% dimethyl sulfoxide, 5% Cremopor EL and 90% physiological saline and orally administered to the test animals one hour prior to the start of the test.
(2) Calculation of Anxiolytic Effect:
The time spent in the light box was measured as an index of the anxiolytic effect, with “spend in the light box” defined as the state in which all limbs of the mice were on the floor of the light box. […] The statistical significance between the vehicle-treated group and the test compound-treated groups was analyzed by one-way layout analysis of variance followed by Dunnett multiple comparison when multiple doses were set for the same test, and by the Mann-Whitney U test when only one dose was set.

For a further test, the system named is intracerebral amyloid-β. The settings on record: PNAS 104: 10673-10678 (2007); cited from earlier work.
For test [2], the system named is ischemic and excitotoxic encephalopathy. The settings on record: Brain Research, 656: 405-408 (1994); cited from earlier work.
The subject of another test is IBS patients. The settings on record: Gut 2004, 53:958-964; cited from earlier work.
The test system of another test is ethanol withdrawal rats. The settings on record: Brain Research, 605:25-32 (1993); cited from earlier work.

As for `CCN(c1nc(C)cc(N2CC=C(c3cccc(F)c3)CC2)n1)c1ccc(C(C)C)cc1SC` [CRA1000], the “stress-related reduction in food intake” value in test [1] is “inhibit”.

Consider `CCc1nn2c(-c3c(OC)cc(COC)cc3OC)coc2c1N(CC1CCOCC1)CC1CC1` [Example 3, N-(cyclopropylmethyl)-3-[2,6-dimethoxy-4-(methoxymethyl)phenyl]-6-ethyl-N-(tetrahydro-2H-pyran-4-ylmethyl)pyrazolo[5,1-b][1,3]oxazole-7-amine], for which, on human CRFR1, the IC50 (usually the point on the concentration scale where inhibition reaches its midpoint) was 100 nM.

As to `CCc1nn2c(-c3c(OC)cc(COC)cc3OC)c(C)oc2c1N(CC1CCOCC1)CC1CC1` [Example 5, N-(cyclopropylmethyl)-3-[2,6-dimethoxy-4-(methoxymethyl)phenyl]-6-ethyl-2-methyl-N-(tetrahydro-2H-pyran-4-ylmethyl)pyrazolo[5,1-b][1,3]oxazole-7-amine], the IC50 at human CRFR1 stood at 32 nM. In the test with male Balb/c mice, the “anxiolytic effect in the light/dark box test in mice” value was “statistically significant effects” and the “Effective Dose” value is 30 mg/kg.

Take `CCc1nn2c(-c3c(OC)cc(COC)cc3OC)c(C)oc2c1N(CC(C)C)CC1CCOCC1` [Example 6, 3-[2,6-dimethoxy-4-(methoxymethyl)phenyl]-6-ethyl-N-isobutyl-2-methyl-N-(tetrahydro-2H-pyran-4-ylmethyl)pyrazolo[5,1-b][1,3]oxazole-7-amine]: the IC50 at human CRFR1 was determined as 43 nM.

Regarding `CCc1nn2c(-c3c(OC)cc(COC)cc3OC)c(C)oc2c1N(CC1CC1)CC1CC1` [Example 7, N,N-bis(cyclopropylmethyl)-3-[2,6-dimethoxy-4-(methoxymethyl)phenyl]-6-ethyl-2-methylpyrazolo[5,1-b][1,3]oxazole-7-amine], at human CRFR1, the IC50 came to 21 nM.

On to `CCc1nn2c(-c3c(OC)cc(COC)cc3OC)c(C)oc2c1N(CC1CC1)CC1CCOC1` (stereo not drawn) [Example 8, N-(cyclopropylmethyl)-3-[2,6-dimethoxy-4-(methoxymethyl)phenyl]-6-ethyl-2-methyl-N-(tetrahydrofuran-3-ylmethyl)pyrazolo[5,1-b][1,3]oxazole-7-amine], for which, at human CRFR1, the half-maximal inhibitory concentration (IC50) came out at 77 nM.

As for `CCOCc1cc(OC)c(-c2c(C)oc3c(N(CC4CC4)CC4CCOC4)c(CC)nn23)c(OC)c1` (stereo not drawn) [Example 9, N-(cyclopropylmethyl)-3-[4-(ethoxymethyl)-2,6-dimethoxyphenyl]-6-ethyl-2-methyl-N-(tetrahydrofuran-3-ylmethyl)pyrazolo[5,1-b][1,3]oxazole-7-amine], the IC50 at human CRFR1 was found to be 44 nM.

For `COCc1cc(OC)c(-c2c(C)oc3c(N(CC4CCOCC4)CC4CC4)c(C)nn23)c(OC)c1` [Example 10, N-(cyclopropylmethyl)-3-[2,6-dimethoxy-4-(methoxymethyl)phenyl]-2,6-dimethyl-N-(tetrahydro-2H-pyran-4-ylmethyl)pyrazolo[5,1-b][1,3]oxazole-7-amine], the IC50 on human CRFR1 was 71 nM. In the test on male Balb/c mice, the “anxiolytic effect in the light/dark box test in mice” value is “statistically significant effects” and the “Effective Dose” value stood at 30 mg/kg.

As to `COCc1cc(OC)c(-c2c(C)oc3c(N(CC(C)C)CC4CCOCC4)c(C)nn23)c(OC)c1` [Example 11, 3-[2,6-dimethoxy-4-(methoxymethyl)phenyl]-N-isobutyl-2,6-dimethyl-N-(tetrahydro-2H-pyran-4-ylmethyl)pyrazolo[5,1-b][1,3]oxazole-7-amine], the IC50 at human CRFR1 stood at 50 nM.

On to `COCc1cc(OC)c(-c2c(C)oc3c(N(CC(C)C)CC4CCOC4)c(C)nn23)c(OC)c1` (stereo not drawn) [Example 12, 3-[2,6-dimethoxy-4-(methoxymethyl)phenyl]-N-isobutyl-2,6-dimethyl-N-(tetrahydrofuran-3-ylmethyl)pyrazolo[5,1-b][1,3]oxazole-7-amine], for which the IC50 on human CRFR1 turned out to be 79 nM.

On to `CCOCc1cc(OC)c(-c2c(C)oc3c(N(CC4CCOCC4)CC4CC4)c(C)nn23)c(OC)c1` [Example 13, N-(cyclopropylmethyl)-3-[4-(ethoxymethyl)-2,6-dimethoxyphenyl]-2,6-dimethyl-N-(tetrahydro-2H-pyran-4-ylmethyl)pyrazolo[5,1-b][1,3]oxazole-7-amine], for which, on human CRFR1, the IC50 was 61 nM.

Consider `CCc1nn2c(-c3c(OC)cc(COC)cc3OC)c(C)oc2c1N(CC1CC1)CC1COCOC1` [Example 14, N-(cyclopropylmethyl)-3-[2,6-dimethoxy-4-(methoxymethyl)phenyl]-N-(1,3-dioxan-5-ylmethyl)-6-ethyl-2-methylpyrazolo[5,1-b][1,3]oxazole-7-amine], for which the IC50 at human CRFR1 came out at 121 nM.

Turning to `CCCCN(c1c(CC)nn2c(-c3c(OC)cc(COC)cc3OC)c(C)oc12)C1CCOCC1` [Example 15, N-butyl-3-[2,6-dimethoxy-4-(methoxymethyl)phenyl]-6-ethyl-2-methyl-N-(tetrahydro-2H-pyran-4-yl)pyrazolo[5,1-b][1,3]oxazole-7-amine], the IC50 on human CRFR1 was 98 nM.

As for `CCc1nn2c(-c3c(OC)cc(COC)cc3OC)c(C)oc2c1N(CC1CC1)C1CCOCC1` [Example 16, N-(cyclopropylmethyl)-3-[2,6-dimethoxy-4-(methoxymethyl)phenyl]-6-ethyl-2-methyl-N-(tetrahydro-2H-pyran-4-yl)pyrazolo[5,1-b][1,3]oxazole-7-amine], on human CRFR1, the IC50 came out at 102 nM.

For α-helical CRF (9-41), the “stress-related increase in intracerebral amyloid-β” value in the test with intracerebral amyloid-β is “suppresses”. Besides, the “ischemic and excitotoxic encephalopathy” value in test [2] is on record as “inhibits”. Further, in the test with IBS patients, the “abdominal pain and anxiety” value was “reduces”; the colon intestinal hyperkinesis entry is recorded as “inhibits”. Moreover, in test [1], the “stress-related reduction in food intake” value is given as “inhibit”. Moreover, the “anxiety behavior in ethanol withdrawal rats” value in the test with ethanol withdrawal rats was “inhibits”.
